Broadly, the IC50 is the point on the concentration scale where inhibition reaches its midpoint.

This data set has as its target T1, human hepatic microsomal UGT1A1 (Homo sapiens, UniProt P22309).
T1 sequence (P22309 26-533): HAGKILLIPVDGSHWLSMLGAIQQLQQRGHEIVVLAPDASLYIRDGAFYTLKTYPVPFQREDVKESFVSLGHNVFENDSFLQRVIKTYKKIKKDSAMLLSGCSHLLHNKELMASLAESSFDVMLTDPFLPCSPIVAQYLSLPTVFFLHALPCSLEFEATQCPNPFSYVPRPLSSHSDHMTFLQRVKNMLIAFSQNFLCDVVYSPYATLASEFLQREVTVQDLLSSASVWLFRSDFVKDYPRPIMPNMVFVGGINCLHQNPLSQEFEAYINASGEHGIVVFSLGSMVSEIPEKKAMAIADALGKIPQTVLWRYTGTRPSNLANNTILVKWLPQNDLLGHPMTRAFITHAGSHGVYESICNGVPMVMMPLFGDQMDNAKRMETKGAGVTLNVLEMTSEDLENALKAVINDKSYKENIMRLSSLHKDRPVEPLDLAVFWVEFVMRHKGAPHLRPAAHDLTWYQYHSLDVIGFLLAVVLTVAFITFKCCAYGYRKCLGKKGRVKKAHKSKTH
Kind of data set: biochemical. Particulars: for Stimulation of enzyme activity, peak increase: at 200 μM. The procedure: The conditions for the assay were determined to be linear with respect to microsomal protein concentration and incubation time. […] Microsomal UGT1A1 activity was determined in duplicate. […] Diluted microsomal fraction was incubated on ice for 15 minutes with alamethicin, magnesium chloride and SACLAC. Substrate and inhibitor were then added and the mixture warmed to 37° C. for 0.5 minute. The reaction was initiated by the addition of UDP glucuronic acid in potassium phosphate buffer. The incubation continued at 37° C. with shaking and no light exposure for 2 minutes. Reactions were terminated by addition of one volume of 200 mM ascorbic acid in methanol, containing 200 nM 2-(N-(2-ethylphenyl)methylsulfonamido)-N-(2-(pyridin-2-ylthio)ethyl)acetamide as the internal standard.
A Shimadzu UFLC XR UPLC system was used for analysis. The column used was a Thermo-Hypersil Gold 1.9 μm C18 column (30×2.1 mm) held at 60° C. Mobile phases were; A: water containing 0.1% (v/v) formic acid, and B: acetonitrile containing 0.1% (v/v) formic acid, pumped at 0.7 mL/minute. Elution was achieved by a series of linear gradients over 2 minutes. The mass spectrometer was an Applied Biosciences SCIEX QTRAP 5500 triple quadrupole mass spectrometer with an electrospray interface operating in positive ion mode. Quantification was by metabolite/internal standard peak area ratio (PAR).
MS/MS transitions ([M+H]+) of m/z 761.2/475.1 and 937.2/475.1 for the monoglucuronide and diglucuronide, respectively. The PAR values for the two monoglucuronides were combined for quantification.
Reaction velocities were calculated from the rates of formation of the metabolites and were compared to those seen with the vehicle control (100% activity). IC50 values were calculated by non-linear regression using GraphPad Prism 7.03 and a sigmoidal three parameter inhibition model. […] During the testing period the inhibitory potency of atazanavir was determined four times, with each concentration tested in duplicate in each determination. The data from all runs were pooled and a global fit performed to determine the lower plateau value. […] For atazanavir, the IC50 values from the four duplicate runs were combined to generate a summary geometric mean and multiplicative standard deviation for this positive control inhibitor.

With `O=C(NCc1c(F)cc(F)cc1F)c1cn2c(c(O)c1=O)C(=O)N1[C@H]3CC[C@H](C3)O[C@@H]1C2` [BIC, bictegravir, reference compound], the IC50 is more than 300 µM and the “Stimulation of enzyme activity, peak increase” value is recorded as 76%.

`O=C(NCc1c(F)cc(F)c(O)c1F)c1cn2c(c(O)c1=O)C(=O)N1[C@H]3CC[C@H](C3)O[C@@H]1C2` [Metabolite M23]: inhibition was half-maximal at 256 µM (IC50).

For `O=C(NCc1c(F)cc(F)cc1F)c1cn2c(c(O[C@@H]3O[C@H](C(=O)O)[C@@H](O)[C@H](O)[C@H]3O)c1=O)C(=O)N1[C@H]3CC[C@H](C3)O[C@@H]1C2` [Metabolite M15], the half-maximal inhibitory concentration (IC50) was more than 300 µM and the “Stimulation of enzyme activity, peak increase” value was determined as 21%.

Turning to `O=C(NCc1c(F)cc(F)c(OS(=O)(=O)O)c1F)c1cn2c(c(O)c1=O)C(=O)N1C(C2)O[C@@H]2CC[C@H]1C2` (stereo partly drawn) [Metabolite M20], the IC50 was 153 µM.

These data come from patent US11253524B2 (Gilead Sciences, Inc., priority 2018, dated 2022).
